The source of these data is patent US20230140216A1, “COMBINATION THERAPY FOR TREATING MPS1” (GAIN THERAPEUTICS SA, priority 2020, published 2023).

For assay [1], the target named is T1, Recombinant human α-L-iduronidase protein (Homo sapiens, UniProt P35475).
T1 construct: purchased R&D
T1 sequence (P35475 28-653): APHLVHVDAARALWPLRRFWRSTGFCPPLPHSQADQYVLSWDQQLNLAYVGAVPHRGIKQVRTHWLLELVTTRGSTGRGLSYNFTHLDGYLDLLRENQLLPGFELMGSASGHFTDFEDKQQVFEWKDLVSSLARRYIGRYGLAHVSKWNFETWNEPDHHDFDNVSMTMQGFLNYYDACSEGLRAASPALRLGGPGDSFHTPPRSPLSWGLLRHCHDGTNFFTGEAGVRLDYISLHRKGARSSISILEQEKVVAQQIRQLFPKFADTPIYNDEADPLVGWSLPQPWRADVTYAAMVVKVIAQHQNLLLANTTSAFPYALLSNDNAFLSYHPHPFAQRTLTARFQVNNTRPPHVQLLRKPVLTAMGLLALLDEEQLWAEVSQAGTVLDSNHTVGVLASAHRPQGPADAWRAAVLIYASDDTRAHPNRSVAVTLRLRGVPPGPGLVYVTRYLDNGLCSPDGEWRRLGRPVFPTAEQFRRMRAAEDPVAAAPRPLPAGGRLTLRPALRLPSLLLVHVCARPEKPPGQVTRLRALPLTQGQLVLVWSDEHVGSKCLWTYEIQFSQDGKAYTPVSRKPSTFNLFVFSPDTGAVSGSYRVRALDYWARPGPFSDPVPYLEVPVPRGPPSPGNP
Nature of the assay: Differential scanning fluorimetry (DSF) thermal stabilization.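 Note: Classes count stabilization of α-L-iduronidase despite the GALC label.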 The class given is binding. The note with it: ΔTm class. In a few lines: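 Purified recombinant human α-L-iduronidase (final 0.75 µM) in 100 mM Hepes, 20 mM MgCl2, pH 7 with SYPRO Orange was heated with compounds (final 1% DMSO). Thermal denaturation was followed by probe fluorescence during a temperature ramp, and stabilization expressed as ΔTm, binned into four categories (A–D).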

In assay [2] the target is T2, ALDURAZYME (laronidase, IDUA) (Homo sapiens, UniProt P35475).
T2 construct: purchased ALDURAZYME®
T2 sequence (P35475 26-653 limits assumed): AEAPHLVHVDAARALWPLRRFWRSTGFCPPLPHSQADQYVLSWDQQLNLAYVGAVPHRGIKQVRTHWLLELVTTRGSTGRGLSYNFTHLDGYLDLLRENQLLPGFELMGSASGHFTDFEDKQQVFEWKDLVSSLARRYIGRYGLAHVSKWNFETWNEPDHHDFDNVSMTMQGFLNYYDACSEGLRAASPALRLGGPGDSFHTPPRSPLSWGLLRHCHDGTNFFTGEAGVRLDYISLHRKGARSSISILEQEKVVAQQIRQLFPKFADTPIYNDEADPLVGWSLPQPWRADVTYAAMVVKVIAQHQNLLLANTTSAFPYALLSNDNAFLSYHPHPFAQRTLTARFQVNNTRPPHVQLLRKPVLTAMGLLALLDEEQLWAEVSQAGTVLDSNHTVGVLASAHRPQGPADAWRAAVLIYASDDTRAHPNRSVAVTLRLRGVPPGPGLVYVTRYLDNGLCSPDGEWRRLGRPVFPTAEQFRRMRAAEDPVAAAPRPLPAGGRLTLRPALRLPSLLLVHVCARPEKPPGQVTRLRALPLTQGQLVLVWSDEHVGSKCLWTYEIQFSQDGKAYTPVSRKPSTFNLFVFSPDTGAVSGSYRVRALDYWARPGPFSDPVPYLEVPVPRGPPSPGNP
Put plainly: Denaturation prevention assay with ALDURAZYME
The assay is classed as biochemical. Particulars: 30 µM compound, pH 7, 37° C. As to the method:
(§1) Briefly, recombinant human α-L-iduronidase protein (obtained in the Institute of Biotechnology and Biomedicine in the UAB, Bellaterra, Spain) was combined at a final concentration of 1 µM with 5X of SYPRO Orange and 30 µM of the corresponding compound in a final reaction volume of 25 µL in 100 mM Hepes 20 mM MgCl2 pH 7 buffer. Reactions were incubated at 37° C. and SYPRO Orange fluorescence intensity was monitored at the indicated time points using Glomax® Discover Microplate Reader from Promega (Madison, WI, USA).
Compounds of Examples 8, 39, 40, 54, and 72 were also tested as described above, except that ALDURAZYME® was used instead of the recombinant human α-L-iduronidase protein (obtained in the Institute of Biotechnology and Biomedicine in the UAB, Bellaterra, Spain).

Assay [3] addresses T3, Recombinant human α-L-iduronidase protein (Homo sapiens, UniProt P35475).
T3 construct: Ala26-Pro653 with a C-terminal 10_His tag; 10xHis (C); host or cells: HEK293f (stated in b1366 for the UAB protein)
T3 sequence (P35475 26-653): T2 sequence (P35475 26-653 limits assumed)
Nature of the assay: Denaturation prevention assay in neutral pH buffer. The class given is biochemical. Particulars: 500 µM reference compound, pH 7, 37° C. As to the method: The capacity of Compounds of the Disclosure to stabilize α-L-iduronidase in neutral pH buffer was assessed using the denaturation prevention assay.
as §1
The compound referred to as Compound A throughout this specification is the compound of Example 8 described above. […] (T=37° C.).

As for `CCN(CC(=O)Nc1c(Cl)cccc1Cl)Cc1nc2ccsc2c(=O)[nH]1` [Example 8, N-(2,6-dichlorophenyl)-2-(ethyl((4-oxo-3,4-dihydrothieno[3,2-d]pyrimidin-2-yl)methyl)amino)acetamide], in assay [1] (commercially available Examples 8-37), the “DSF Activity range” value is on record as “A (ΔTm GALC > 1 is shown as A)”. Moreover, the “prevention of IDUA denaturation” value in assay [2] is on record as “prevent IDUA denaturation”. In the case of `Cc1csc2c(=O)[nH]c(CN(C)CC(=O)N3CCc4ccccc43)nc12` [Example 39], in assay [1] (synthetized Examples 38-94), the “DSF Activity range” value is “B (ΔTm GALC between 0.5 and 1 is shown as B)”. Besides, in assay [2], the “prevention of IDUA denaturation” value is given as “prevent IDUA denaturation”.

Turning to `Cc1csc2c(=O)[nH]c(CN(C)CC(=O)N(C)c3ccc(Cl)c(Cl)c3)nc12` [Example 40, 2-(N-((3,4-dihydro-7-methyl-4-oxothieno[3,2-d]pyrimidin-2-yl)methyl)-N-methylamino)-N-(3,4-dichlorophenyl)-N-methylacetamide], in assay [1] (synthetized Examples 38-94), the “DSF Activity range” value is “B (ΔTm GALC between 0.5 and 1 is shown as B)”. For the same compound, in assay [2], the “prevention of IDUA denaturation” value is “prevent IDUA denaturation”. For the compound `CCCN(CC(=O)N(C)c1ccccc1Cl)Cc1nc2cc(C)sc2c(=O)[nH]1` [Example 54], the “DSF Activity range” value in assay [1] (synthetized Examples 38-94) was “B (ΔTm GALC between 0.5 and 1 is shown as B)”. Moreover, the “prevention of IDUA denaturation” value in assay [2] was “prevent IDUA denaturation”. Regarding `CN(CC(=O)N1CCc2ccccc21)Cc1nc2cc(F)ccc2c(=O)[nH]1` [Example 72, 7-fluoro-2-(((2-(indolin-1-yl)-2-oxoethyl)(methyl)amino)methyl)quinazolin-4(3H)-one], the “DSF Activity range” value in assay [1] (synthetized Examples 38-94) was “B (ΔTm GALC between 0.5 and 1 is shown as B)”. In assay [2], the “prevention of IDUA denaturation” value is “prevent IDUA denaturation”. With `O=C[C@H](O)[C@@H](O)[C@H](O)[C@@H](O)C(=O)O` [L-iduronic acid, reference compound], the “prevention of pH-induced IDUA denaturation” value in assay [3] is reported as “minimal effect”.
